# Legend:
# KRASG12D = biological target: T1, KRASG12D (Homo sapiens, UniProt P01116, G12D); assay: Bio-Biochem-PPI-HTRF Ras-SOS1 interaction assay (KRAS G12D); format: biochemical; details: 5 nM
# T1 construct: made in house; host or cells: E. coli BL21 (DE3)
# How it was run: (§1)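 Inhibition of His-hSOS1 binding to GST-tagged wild-type or G12D K-Ras is read as HTRF ratio (665/620 nm) following incubation of about 10 minutes or longer, and IC50 values are fitted from duplicate six-point titrations.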
# KRASwt = biological target: T2, KRASwt (Homo sapiens, UniProt P01116); assay: Bio-Biochem-PPI-HTRF Ras-SOS1 interaction assay (KRAS wt); format: biochemical; details: 5 nM
# T2 construct: made in house; host or cells: E. coli BL21 (DE3)
# How it was run: as §1
# T1 sequence (P01116 1-188 isoform P01116-2 G12D): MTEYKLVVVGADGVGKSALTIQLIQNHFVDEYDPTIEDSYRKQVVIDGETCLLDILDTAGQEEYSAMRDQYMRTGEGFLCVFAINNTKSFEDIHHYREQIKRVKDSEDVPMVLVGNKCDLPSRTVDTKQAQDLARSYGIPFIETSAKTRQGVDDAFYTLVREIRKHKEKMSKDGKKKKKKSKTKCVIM
# T2 sequence (P01116 1-188 isoform P01116-2): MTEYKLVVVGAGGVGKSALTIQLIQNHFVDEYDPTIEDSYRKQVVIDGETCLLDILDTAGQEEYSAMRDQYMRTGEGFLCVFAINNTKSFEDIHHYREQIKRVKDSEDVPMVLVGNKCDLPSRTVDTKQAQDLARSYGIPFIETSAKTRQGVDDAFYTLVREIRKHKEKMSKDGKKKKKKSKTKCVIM
SMILES,IC50 (KRASG12D) [µM],IC50 (KRASwt) [µM]
"C#Cc1c(F)ccc2cc(O)cc(-c3nc4c(cc3F)c(N3CCOC5(CNC5)C3)nc(=O)n4-c3c(C)ccnc3C(C)C)c12 [compound 170, 7-(8-ethynyl-7-fluoro-3-hydroxynaphthalen-1-yl)-6-fluoro-1-(2-isopropyl-4-methylpyridin-3-yl)-4-(5-oxa-2,8-diazaspiro[3.5]nonan-8-yl)pyrido[2,3-d]pyrimidin-2(1H)-one]",≥ 5,≥ 5
"N#Cc1c(N)sc2c(F)ccc(-c3c(Cl)cc4c(N5CCCCC6(CN(C(=O)C7(O)COC7)C6)C5)nc(OC[C@@]56CCCN5C[C@H](F)C6)nc4c3F)c12 [compound 327, 2-amino-4-(6-chloro-8-fluoro-2-(((2R,7aS)-2-fluorotetrahydro-1H-pyrrolizin-7a(5H)-yl)methoxy)-4-(2-(3-hydroxyoxetane-3-carbonyl)-2,6-diazaspiro[3.6]decan-6-yl)quinazolin-7-yl)-7-fluorobenzo[b]thiophene-3-carbonitrile]",< 5,< 5
"CN(C)C/C=C/C(=O)N1CC2(C1)CN(c1nc(OC[C@@]34CCCN3C[C@H](F)C4)nc3c(F)c(-c4ccc(F)c5sc(N)c(C#N)c45)c(Cl)cc13)CCO2 [compound 185, 2-amino-4-(6-chloro-4-(2-((E)-4-(dimethylamino)but-2-enoyl)-5-oxa-2,8-diazaspiro[3.5]nonan-8-yl)-8-fluoro-2-(((2R,7aS)-2-fluorotetrahydro-1H-pyrrolizin-7a(5H)-yl)methoxy)quinazolin-7-yl)-7-fluorobenzo[b]thiophene-3-carbonitrile]",< 5,< 5
"COc1cc(C(=O)N2CC3(CCCCN(c4nc(OC[C@@]56CCCN5C[C@H](F)C6)nc5c(F)c(-c6ccc(F)c7sc(N)c(C#N)c67)c(Cl)cc45)C3)C2)n(C)n1 [compound 258, 2-amino-4-(6-chloro-8-fluoro-2-(((2R,7aS)-2-fluorotetrahydro-1H-pyrrolizin-7a(5H)-yl)methoxy)-4-(2-(3-methoxy-1-methyl-1H-pyrazole-5-carbonyl)-2,6-diazaspiro[3.6]decan-6-yl)quinazolin-7-yl)-7-fluorobenzo[b]thiophene-3-carbonitrile]",< 5,< 5
"C[C@H](Oc1nc(N2CCCC3(CN(C(=O)c4ccnn4C)C3)C2)c2cc(Cl)c(-c3ccc(F)c4sc(N)c(C#N)c34)c(F)c2n1)[C@@H]1CCCN1C [compound 127, 2-amino-4-(6-chloro-8-fluoro-4-(2-(1-methyl-1H-pyrazole-5-carbonyl)-2,6-diazaspiro[3.5]nonan-6-yl)-2-((S)-1-((S)-1-methylpyrrolidin-2-yl)ethoxy)quinazolin-7-yl)-7-fluorobenzo[b]thiophene-3-carbonitrile]",< 5,< 5
"N#Cc1c(N)sc2c(F)ccc(-c3c(Cl)cc4c(N5CCCCC6(CN(C(=O)C7COC7)C6)C5)nc(OC[C@@]56CCCN5C[C@H](F)C6)nc4c3F)c12 [compound 293, 2-amino-4-(6-chloro-8-fluoro-2-(((2R,7aS)-2-fluorotetrahydro-1H-pyrrolizin-7a(5H)-yl)methoxy)-4-(2-(oxetane-3-carbonyl)-2,6-diazaspiro[3.6]decan-6-yl)quinazolin-7-yl)-7-fluorobenzo[b]thiophene-3-carbonitrile]",< 5,< 5
"CN1CCC[C@H]1COc1nc(N2CCCC3(CNC3)C2)c2cc(Cl)c(-c3cccc4sc(N)nc34)c(F)c2n1 [compound 172, 4-(6-chloro-8-fluoro-2-(((S)-1-methylpyrrolidin-2-yl)methoxy)-4-(2,6-diazaspiro[3.5]nonan-6-yl)quinazolin-7-yl)benzo[d]thiazol-2-amine]",< 5,< 5
"C[C@H](O)C(=O)N1CC2(CCCCN(c3nc(OC[C@@]45CCCN4C[C@H](F)C5)nc4c(F)c(-c5ccc(F)c6sc(N)c(C#N)c56)c(Cl)cc34)C2)C1 [compound 318, 2-amino-4-(6-chloro-8-fluoro-2-(((2R,7aS)-2-fluorotetrahydro-1H-pyrrolizin-7a(5H)-yl)methoxy)-4-(2-((S)-2-hydroxypropanoyl)-2,6-diazaspiro[3.6]decan-6-yl)quinazolin-7-yl)-7-fluorobenzo[b]thiophene-3-carbonitrile]",< 5,< 5
"COc1nc(N2CCCCC3(CN(C(C)=O)C3)C2)c2cc(Cl)c(-c3ccc(F)c4sc(N)c(C#N)c34)c(F)c2n1 [compound 256, 4-(4-(2-acetyl-2,6-diazaspiro[3.6]decan-6-yl)-6-chloro-8-fluoro-2-methoxyquinazolin-7-yl)-2-amino-7-fluorobenzo[b]thiophene-3-carbonitrile]",< 5,< 5
"COC1CN(C(=O)N2CC3(CCCN(c4nc(O[C@@H](C)[C@@H]5CCCN5C)nc5c(F)c(-c6ccc(F)c7sc(N)c(C#N)c67)c(Cl)cc45)C3)C2)C1 [compound 205, 2-amino-4-(6-chloro-8-fluoro-4-(2-(3-methoxyazetidine-1-carbonyl)-2,6-diazaspiro[3.5]nonan-6-yl)-2-((S)-1-((S)-1-methylpyrrolidin-2-yl)ethoxy)quinazolin-7-yl)-7-fluorobenzo[b] thiophene-3-carbonitrile]",< 5,< 5
"N#Cc1c(N)sc2c(F)ccc(-c3c(Cl)cc4c(N5CCC6(CC5)CN(C(=O)C5CC5(F)F)C6)nc(OC[C@@]56CCCN5C[C@H](F)C6)nc4c3F)c12 (stereo partly drawn) [compound 131, 2-amino-4-(6-chloro-4-(2-(2,2-difluorocyclopropane-1-carbonyl)-2,7-diazaspiro[3.5]nonan-7-yl)-8-fluoro-2-(((2R,7aS)-2-fluorotetrahydro-1H-pyrrolizin-7a(5H)-yl)methoxy)quinazolin-7-yl)-7-fluorobenzo[b]thiophene-3-carbonitrile]",< 5,< 5
"CC(=O)N1CC2(CCCCN(c3nc(OC[C@@]45CCCN4C[C@H](F)C5)nc4c(F)c(-c5ccc(F)c6sc(N)c(C#N)c56)c(Cl)cc34)C2)C1 [compound 338, 4-(4-(2-acetyl-2,6-diazaspiro [3.6]decan-6-yl)-6-chloro-8-fluoro-2-(((2R,7aS)-2-fluorotetrahydro-1H-pyrrolizin-7a(5H)-yl)methoxy)quinazolin-7-yl)-2-amino-7-fluorobenzo[b]thiophene-3-carbonitrile]",< 5,< 5
"N#Cc1c(N)sc2c(F)ccc(-c3c(Cl)cc4c(N5CCCC6(CN(C(=O)C7CC7)C6)C5)nc(OC[C@@]56CCCN5C[C@H](F)C6)nc4c3F)c12 [compound 120, 2-amino-4-(6-chloro-4-(2-(cyclopropanecarbonyl)-2,6-diazaspiro[3.5]nonan-6-yl)-8-fluoro-2-(((2R,7aS)-2-fluorotetrahydro-1H-pyrrolizin-7a(5H)-yl)methoxy)quinazolin-7-yl)-7-fluorobenzo[b]thiophene-3-carbonitrile]",< 5,< 5
"CC1CCCC2(CN(C(=O)C3CC3(F)F)C2)CN1c1nc(OC[C@@]23CCCN2C[C@H](F)C3)nc2c(F)c(-c3ccc(F)c4sc(N)c(C#N)c34)c(Cl)cc12 (stereo partly drawn) [compound 288, 2-amino-4-(6-chloro-4-(2-(2,2-difluorocyclopropane-1-carbonyl)-7-methyl-2,6-diazaspiro[3.6]decan-6-yl)-8-fluoro-2-(((2R,7aS)-2-fluorotetrahydro-1H-pyrrolizin-7a(5H)-yl)methoxy)quinazolin-7-yl)-7-fluorobenzo[b]thiophene-3-carbonitrile]",< 5,< 5
"N#Cc1c(N)sc2c(F)ccc(-c3c(Cl)cc4c(N5CCCC6(CN(C(=O)[C@@H]7C[C@H]7C#N)C6)C5)nc(OC[C@@]56CCCN5C[C@H](F)C6)nc4c3F)c12 [compound 104, 2-amino-4-(6-chloro-4-(2-((1R,2R)-2-cyanocyclopropane-1-carbonyl)-2,6-diazaspiro[3.5]nonan-6-yl)-8-fluoro-2-(((2R,7aS)-2-fluorotetrahydro-1H-pyrrolizin-7a(5H)-yl)methoxy)quinazolin-7-yl)-7-fluorobenzo[b]thiophene-3-carbonitrile]",< 5,< 5
"N#Cc1c(N)sc2c(F)ccc(-c3c(Cl)cc4c(N5CCCCC6(CN(C(=O)C7C8CCOC87)C6)C5)nc(OC[C@@]56CCCN5C[C@H](F)C6)nc4c3F)c12 (stereo partly drawn) [compound 270, 4-(4-(2-(2-oxabicyclo[3.1.0]hexane-6-carbonyl)-2,6-diazaspiro [3.6]decan-6-yl)-6-chloro-8-fluoro-2-(((2R,7aS)-2-fluorotetrahydro-1H-pyrrolizin-7a(5H)-yl)methoxy)quinazolin-7-yl)-2-amino-7-fluorobenzo[b]thiophene-3-carbonitrile]",< 5,< 5
"C[C@H](Oc1nc(N2CCCC3(CN(C(=O)[C@@H]4C[C@H]4C#N)C3)C2)c2cc(Cl)c(-c3ccc(F)c4sc(N)c(C#N)c34)c(F)c2n1)[C@@H]1CCCN1C [compound 105, 2-amino-4-(6-chloro-4-(2-((1R,2R)-2-cyanocyclopropane-1-carbonyl)-2,6-diazaspiro[3.5]nonan-6-yl)-8-fluoro-2-((S)-1-((S)-1-methylpyrrolidin-2-yl)ethoxy)quinazolin-7-yl)-7-fluorobenzo[b]thiophene-3-carbonitrile]",< 5,< 5
"C[C@H](Oc1nc(N2CCOC3(CNC3)C2)c2cc(Cl)c(-c3ccc(F)c4sc(N)c(C#N)c34)c(F)c2n1)[C@@H]1CCCN1C (single isomer, unassigned; atropisomer 1) [compound 128]",≥ 5,< 5

# From patent US20240109918A1, “HETEROCYCLIC COMPOUNDS AND USES THEREOF” (Kumquat Biosciences Inc., priority 2022, published 2024)
